Laboratory results as given in PMC7230911, “Meroterpenoids from the Brown Alga Cystoseira usneoides as Potential Anti-Inflammatory and Lung Anticancer Agents” (Marine Drugs, 2020).

Assays:
[1] = test system: COX-2; experiment: COX-2 protein expression in LPS-stimulated THP-1 macrophages (western blot); assay type: cell-based, human; details: 1 h pretreatment, then LPS 1 μg/mL 24 h
Protocol: COX-2 is the key enzyme regulating the production of prostaglandins, which are the central mediators of inflammation. On the other hand, iNOS enzyme represents an important molecular target closely involved in inflammatory responses. Thus, the effect of the AMTs 1–8 on LPS-induced COX-2 and iNOS protein expression was investigated by western blot analysis.
Figure 3 Effect of meroterpenoids 1–8 on LPS-induced COX-2 and iNOS protein expression in THP-1 macrophages. Cells were pretreated for 1 h with the compounds (1, 2, 3, 4, 7, and 8 at 8 μg/mL; 5 and 6 at 4 μg/mL) and then stimulated with LPS (1 μg/mL). Cytosolic lysates from 24 h-stimulated cells were separated on 10% SDS-PAGE. COX-2, iNOS, and β-actin were detected by western blot analysis. Data are expressed as means ± SE from three independent experiments. Statistical significance is indicated (+++ p < 0.001 and ++ p < 0.01, vs. Control, respectively; * p < 0.05, and ** p < 0.01 vs. Control + LPS).
Western blotting was used to measure the protein levels of COX-2 and iNOS [65]. THP-1 macrophages were plated at a density of 1 × 10^6 cells/mL in six-well plates, treated for 1 h with compounds 1–8 (8 μg/mL for compounds 1, 2, 3, 4, 7, and 8, and 4 μg/mL for compounds 5 and 6), and then stimulated with 1 μg/mL of LPS in medium at 37 °C. After 24 h, the cells were washed with ice-cold PBS, collected, suspended in the lysis buffer (250 mM NaCl, 50 mM Tris (pH 7.5), 0.5 mM EDTA, 5 mM EGTA, 8 mM MgCl2, 1 mM PMSF, 0.01 mg/mL pepstatin A, 0.01 mg/mL leupeptin, 0.01 mg/mL aprotinin, 1% Triton X-100) and centrifuged at 12,000× g at 4 °C for 3 min to yield cell lysates. Proteins concentration in cell lysates was determined by Bio-Rad Protein Assay, based on the method of Bradford (BioRad, Richmond CA, USA). Cytosolic proteins (50 μg) were separated with 10% SDS-polyacrylamide gel electrophoresis and transferred on PVDF membranes. The membranes were then blocked with 5% (w/v) non-fat dry milk in Tris-buffered saline containing 0.1% Tween-20 (pH 7.4) (TBST) buffer at room temperature for 1 h. The membranes were washed three times (10 min) in TBST buffer and incubated with specific primary antibodies anti-COX-2 (1:3000) or anti-iNOS (1:1000) diluted in 5% (w/v) non-fat dry milk in TBST buffer, at 4 °C overnight. Then, the membranes were incubated with peroxidase-conjugated […] goat anti-rabbit IgG (1: 1000) for 1 h at room temperature. To ascertain that blots were loaded with equal amounts of protein lysates, they were also incubated in the presence of the antibody against β-actin protein (1:10,000). After washing the membrane again with TBST buffer (10 min) three times, the antibody was visualized using an enhanced chemiluminescence light-detecting kit (Super-Signal West Pico Chemiluminescent Substrate, Pierce, IL, USA), according to the manufacturer’s instructions and exposed to an X-ray film (GE Healthcare Ltd., Amersham, UK). The protein band densities were quantified using a Scientific Imaging Systems (Biophotonics ImageJ Analysis Software, National Institute of Mental Health, Bethesda, MD, USA).

[2] = test system: A549 cells; experiment: Cell cycle analysis of A549 cells by flow cytometry; assay type: cell-based, human; details: IC50 concentration, 24 h; for cells at S phase: control 4.99%; for cells at G2/M phase: control 14.06%
Protocol: We next investigated whether the treatment with AMTs 1–8 caused any cell cycle-related event, which inhibit the viability of A549 cell line. Thus, the cells were treated for 24 h with the AMTs at concentrations of IC50 (Table 1), or with colchicine (at 0.2 μg/mL) as the positive control, and then subjected to flow cytometry analysis to evaluate the distribution of cells in the different phases of the cell cycle (Figure 5A).
Figure 5 Effects of meroterpenoids 1–8 on cell cycle distribution of A549 cells. Cells were incubated with IC50 doses of the compounds for 24 h. (A) Cells were harvested to measure the cell cycle distribution by flow cytometry. (B) Quantitative analysis of cell cycle distribution after treatment. Data represent mean ±SE from three independent experiments. * p < 0.05, ** p < 0.01, and *** p < 0.001 compared with the untreated group (control).
For cell cycle analysis by flow cytometry, A549 cells were seeded at 1 × 10^6 cells/well in 6-well plates and incubated for 24 h followed by treatment with the AMTs, at concentration of IC50, and further incubation for 24 h. Colchicine (final concentration of 0.2 μg/mL) was used as positive control. Cells were harvested after trypsinization and washed once with PBS. Then, the cells were centrifuged at 1500 rpm for 5 min (25 °C), the pellet was fixed with 1 mL of ice-cold 70% ethanol, and the samples were stored at −4 °C overnight. Then the cells were washed with PBS and incubated in the darkness with PBS containing 5 mg/mL of RNase A for 48 h at 4 °C. Subsequently, 50 µL of propidium iodide (0.1 mg/mL) was added and the cells were incubated for 1 h at 4 °C. The relative DNA content per cell was analyzed using a Beckman Coulter Cytomics FC 500 MPL (Beckman Coulter Inc, San Diego, CA, USA). The data acquisition was performed with the DML program. The analysis of the acquired data was performed with the CXP cytometer.

## COc1c(C)cc(O)cc1C/C=C(\C)CC(=O)/C=C(/C)CCCC(C)(O)C(=O)/C=C/C(C)(C)O (centres unmarked) [Compound 1, usneoidone Z]
[1]; 8 μg/mL
  effect on expression of COX-2 (in words): no significant effect
[2]
  cells at S phase: 17.75%
  cells at G2/M phase: 31.15%

## COc1c(C)cc(O)cc1C/C=C(\C)CC(=O)/C=C(\C)CCCC(C)(O)C(=O)/C=C/C(C)(C)O (centres unmarked) [Compound 2, 11-hydroxy-1’-O-methylamentadione]
[1]; 8 μg/mL
  effect on expression of COX-2 (in words): significantly down-regulated
[2]
  cells at S phase: 17.90%
  cells at G2/M phase: 31.62%

## COc1c(C)cc(O)cc1C/C=C(\C)CC(=O)/C=C(\C)CCCC(C)=O [Compound 3, cystomexicone B]
[1]; 8 μg/mL
  decrease of COX-2 levels: 53.35%

## COc1c(C)cc(O)cc1C/C=C(\C)CC(=O)/C=C(/C)CCCC(C)=O [Compound 4, cystomexicone A]
[1]; 8 μg/mL
  effect on expression of COX-2 (in words): significantly down-regulated

## COc1c(C)cc(O)cc1C/C=C(\C)CC(=O)/C=C(/C)CCCC(C)C(=O)/C=C/C(C)(C)O (stereo not drawn) [Compound 5, 6-cis-amentadione-1′-methyl ether]
[1]; 4 μg/mL
  decrease of COX-2 levels: 53.52%

## COc1c(C)cc(O)cc1C/C=C(\C)CC(=O)/C=C(\C)CCCC(C)C(=O)/C=C/C(C)(C)O (centres unmarked) [Compound 6, amentadione-1′-methyl ether]
[1]; 4 μg/mL
  decrease of COX-2 levels: 64.23%

## COc1c(C)cc(O)cc1/C=C/C(C)(O)CC(=O)/C=C(/C)CCCC(C)C(=O)/C=C/C(C)(C)O (centres unmarked) [Compound 7, cystodione A]
[1]; 8 μg/mL
  decrease of COX-2 levels: 58.05%
[2]
  cells at S phase: 13.69%
  cells at G2/M phase: 40.19%
[2]; control 71.40%
  cells at G0/G1 phase: 49.31%

## COc1c(C)cc(O)cc1/C=C/C(C)(O)CC(=O)/C=C(\C)CCCC(C)C(=O)/C=C/C(C)(C)O (centres unmarked) [Compound 8, cystodione B]
[1]; 8 μg/mL
  effect on expression of COX-2 (in words): no significant effect
[2]
  cells at S phase: 16.73%
  cells at G2/M phase: 32.50%
